A word on the MIC: it is the lowest concentration found to suppress growth.

MIC data for four compounds are collected here from DBAASP.

Values after ≈ are worked out from the molar mass of the structure shown. Values joined by “and” are separate entries in the source; they are usually repeats but may differ in a detail not shown here. Equal values may be shown once.

Holding throughout (test): ≥ marks a high value that may be exact or a test limit, other limits are often not marked, values filed in µg/mL are converted to µM
Assay [1] deals with Candida albicans ATCC 36232.
Assay [2] deals with Escherichia coli ATCC 2592.
The subject of assay [3] is Pseudomonas aeruginosa ATCC 9027.
The subject of assay [4] is Staphylococcus aureus ATCC 6538.
Assay [5] has as its system Staphylococcus aureus 1550.
Assay [6] has as its system Micrococcus luteus ATCC 9341.
The test system of assay [7] is Escherichia coli AB94012.
Assay [8] has as its system Listeria monocytogenes KCTC 3710.
For assay [9], the system named is Pseudomonas aeruginosa 671973.
Assay [10] relates to Pseudomonas aeruginosa 5018.
Assay [11] relates to Acinetobacter baumannii ATCC 19606.
The test system of assay [12] is Pseudomonas aeruginosa 4007.
Assay [13] relates to Staphylococcus aureus P1381.
The subject of assay [14] is Staphylococcus aureus ATCC 29213.
Assay [15] concerns Staphylococcus epidermidis AB208187.
Assay [16] deals with Staphylococcus epidermidis AB208188.
The subject of assay [17] is Bacillus cereus KCTC 1012.
Assay [18] has as its system Staphylococcus aureus ATCC 25923.
In assay [19] the test system is Streptococcus agalactiae.
In assay [20] the test system is Acinetobacter baumannii KCTC 2508.
Assay [21] has as its system Staphylococcus aureus AB94004.
Assay [22] concerns Salmonella enterica subsp. enterica serovar Typhimurium ATCC 14028.
For assay [23], the system named is Staphylococcus aureus P1374.
For assay [24], the system named is Enterococcus faecium.
In assay [25] the test system is Acinetobacter baumannii.
Assay [26] relates to Staphylococcus aureus AB208193.
Assay [27] has as its system Klebsiella pneumoniae KCTC 2208.
The test system of assay [28] is Micrococcus luteus AB93113.
For assay [29], the system named is Pseudomonas aeruginosa AB93066.
The subject of assay [30] is Pseudomonas aeruginosa 3592.
For assay [31], the system named is Bacillus subtilis AB91021.
In assay [32] the test system is Pseudomonas aeruginosa.
Assay [33] relates to Salmonella typhimurium.
For assay [34], the system named is Escherichia coli HB101.
Assay [35] concerns Bacillus subtilis.
The subject of assay [36] is Streptococcus sobrinus ATCC 6715.
Assay [37] has as its system Streptococcus sanguinis ATCC 10556.
Assay [38] relates to Streptococcus mutans UA159.

Take `CC(C)[C@H](NC(=O)[C@H](CCCCN)NC(=O)[C@H](CCCCN)NC(=O)[C@H](CCCCN)NC(=O)[C@H](CCCCN)NC(=O)[C@H](CCCCN)NC(=O)[C@@H](NC(=O)[C@@H](NC(=O)[C@@H](N)Cc1ccccc1)C(C)C)C(C)C)C(=O)N[C@@H](Cc1ccccc1)C(=O)O` [FVVKKKKKVF]: the minimal inhibitory concentration (MIC) in assay [1] was at least 80 µM; in [2], at least 80 µM; in [3], over 80 µM; in assay [4], over 80 µM; in assay [5], at least 80 µM; in assay [6], at least 80 µM.
As for `CC[C@H](C)[C@H](NC(=O)CN)C(=O)N[C@@H](CC(C)C)C(=O)NCC(=O)N[C@@H](CCCCN)C(=O)N[C@@H](CC(C)C)C(=O)N[C@@H](Cc1c[nH]c2ccccc12)C(=O)N[C@@H](CCC(=O)O)C(=O)NCC(=O)N[C@H](C(=O)N[C@@H](CCCCN)C(=O)N[C@@H](CO)C(=O)N[C@H](C(=O)N[C@@H](Cc1ccccc1)C(N)=O)[C@@H](C)CC)C(C)C` [GILGKLWEGVKSIF], the minimal inhibitory concentration (MIC) in [7] was at least 64.6 µM; in [8] it was 3.13 µM (≈ 4.84 µg/mL); in assay [9], 3.13 µM (≈ 4.84 µg/mL); in assay [10] it was 12.5 µM (≈ 19.3 µg/mL); in [11], 3.23 µM (≈ 5 µg/mL); in [12] it was 25 µM (≈ 38.6 µg/mL). The minimal inhibitory concentration (MIC) in [13] was 8.08 µM (≈ 12.5 µg/mL); in assay [14], 6.25 µM (≈ 9.66 µg/mL); in assay [15], 16.2 µM (≈ 25 µg/mL); in assay [16], 16.2 µM (≈ 25 µg/mL); in [17], 12.5 µM (≈ 19.3 µg/mL); in [18], 4.04 µM and 3.13 µM. In addition, the minimal inhibitory concentration (MIC) in assay [19] was 16.2 µM (≈ 25 µg/mL); in assay [20], 3.13 µM and 6.25 µM; in [21], 8.08 µM (≈ 12.5 µg/mL); in [22] it was 3.13 µM (≈ 4.84 µg/mL); in [23], 16.2 µM (≈ 25 µg/mL); in assay [24] it was 8.08 µM (≈ 12.5 µg/mL). Further, the minimum inhibitory concentration (MIC) in assay [3] is over 64.6 µM; in [25], 4.14 µM and 3.13 µM and 6.25 µM; in assay [26] it was 8.08 µM (≈ 12.5 µg/mL); in assay [4], 8.08 µM (≈ 12.5 µg/mL); in [27], 12.5 µM (≈ 19.3 µg/mL); in assay [28], 8.08 µM (≈ 12.5 µg/mL). Also, the MIC is at least 64.6 µM in assay [29], 6.25 µM (≈ 9.66 µg/mL) in [30] and 8.08 µM (≈ 12.5 µg/mL) in assay [31].
For the compound `CC[C@H](C)[C@H](NC(=O)[C@@H](NC(=O)[C@@H]1CCCN1C(=O)[C@@H](NC(=O)[C@@H]1CCCN1C(=O)[C@H](CCCCN)NC(=O)[C@H](CCCCN)NC(=O)[C@H](CO)NC(=O)CN)C(C)C)[C@@H](C)CC)C(=O)N[C@@H](Cc1ccc(O)cc1)C(=O)N[C@H]1CSSC[C@@H](C(=O)N[C@@H](CCC(N)=O)C(=O)N[C@@H](CCCN=C(N)N)C(=O)N[C@@H](CCSC)C(=O)O)NC(=O)[C@H](CCCCN)NC(=O)CNC(=O)[C@H]([C@@H](C)O)NC(=O)[C@H](C)NC(=O)[C@H](C)NC(=O)[C@H](CCCN=C(N)N)NC(=O)[C@H](CCCN=C(N)N)NC(=O)[C@H](CC(N)=O)NC1=O` [GSKKPVPIIYCNRRAATGKCQRM], the minimum inhibitory concentration (MIC) worked out at 7.35 µM (≈ 18.9 µg/mL) in assay [32], 2.6 µM (≈ 6.7 µg/mL) in [33], 2.6 µM (≈ 6.7 µg/mL) in assay [34] and 20.8 µM (≈ 53.6 µg/mL) in assay [35].
For the compound `CC(C)[C@H](NC(=O)[C@H](CCCCN)NC(=O)[C@H](CCCCN)NC(=O)[C@H](C)NC(=O)[C@H](CCCCN)NC(=O)[C@H](CCCCN)NC(=O)[C@H](Cc1ccccc1)NC(=O)[C@H](Cc1ccccc1)NC(=O)[C@H](CCCCN)NC(=O)[C@H](CCCCN)NC(=O)[C@H](Cc1c[nH]c2ccccc12)NC(=O)CN)C(=O)N[C@@H](Cc1c[nH]c2ccccc12)C(=O)N[C@@H](CCCCN)C(=O)O` [GWKKFFKKAKKVWK], the MIC in [36] is at least 141 µM; in assay [37], at least 141 µM; in [38], at least 70.7 µM.
